{"source": "paper PMC4546618", "about": "“Casitas B-Lineage Lymphoma RING Domain Inhibitors Protect Mice against High-Fat Diet-Induced Obesity and Insulin Resistance” (PLoS ONE, 2015)", "key": {"Cbl (RING) protein": {"target": "T1, Cbl (RING) protein (Homo sapiens, UniProt P22681)", "T1 construct": "including the linker and RING domain (codon 358–457); GST (Glutathione S-Transferase); made in house", "T1 sequence (P22681 358-457)": "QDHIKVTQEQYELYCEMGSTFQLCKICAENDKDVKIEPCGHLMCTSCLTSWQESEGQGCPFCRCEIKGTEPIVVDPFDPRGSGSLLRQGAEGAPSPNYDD", "assay": "Fluorescence polarization (FP) assay, competition with FITC-βA-PFKPP-NH2 probe", "format": "binding", "conditions": "probe FITC-βA-PFKPP-NH2 100 nmol/L, Cbl (RING) protein 3 μmol/L, PBS pH 7.4", "how_it_was_run": "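GST-tagged c-Cbl linker plus RING domain (codons 358–457), 3 μmol/L, was mixed with 100 nmol/L FITC-βA-PFKPP-NH2 probe in PBS pH 7.4 with 0.01% Triton X-100. Peptides were added as 10–0.078 μmol/L solutions (half-fold dilutions). Polarization was read at ex 485/em 538 nm, and ΔmP, Kd and Ki were estimated from fitted data.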"}, "mice": {"tested_on": "mice", "assay": "Acute toxicity in mice", "format": "in vivo", "conditions": "up to 15 mg/kg i.p.", "procedure": "(§1) All experiments were approved by the institutional Animal Care and Use Committee (Chengdu Medical College, China). All experiments were carried out in 10-week-old male mice maintained on the C57BL/6 background. All the animals were kept on a 12-h light/dark cycle with free access to food and water.\nThe control group (n = 10) received vehicle only. Eight groups (10 mice each) were treated with increasing doses of either peptide 1, 3, 10, 34, 2, 60, 49, and 51 up to 15 mg/kg by i.p. Number of death, sedation, spontaneous motor activity, alertness, ptosis, dyspnea, convulsion, diarrhea, urination, postural reflex, piloerection, nociception, grooming, vocalization, rearing, climbing and aggression were observed every 12 hours for 72 h. Animals were maintained for another 14 days after the initial examination. We planned to sacrifice the animals if they show severe signs of pain or distress, a body weight loss in excess of 15% of its body weight, or a deterioration of the body condition score to BC2(-) or below. However, none of the animals qualified for the mentioned the symptoms. No animals died during the whole study. At the end of the experiment, animals were euthanized by CO2 asphyxiation followed by cervical dislocation, the livers, spleens and kidneys were collected and formalin-fixed paraffin-embedded for H&E staining."}, "[1]": {"assay": "Pharmacokinetic studies, plasma concentration after i.p. injection", "format": "in vivo", "conditions": "mice, i.p. 4 mg/kg", "procedure": "as §1\nPeptides (1, 3, 10, 34, 2, 60, 49, and 51) were dissolved in sterile aqueous 5% dextrose and administered to mice by i.p. injection (4 mg/kg). Blood samples were collected from the tail tip at 0, 0.5, 1, 6, 12, 18, 24 and 48 hours. Plasma samples were harvested by centrifugation and stored at -80°C until assayed. Peptide concentrations in plasma were determined by Reversed-Phase High-Performance Liquid Chromatography (RP-HPLC) with electrospray ionization mass spectrometric ([…]) detection. Samples were assayed with a series of 8 calibration standards of peptide in plasma at concentrations ranging from 50 to 6000 μg/L. Peptide concentrations were determined by comparing to the standards."}, "mice fed a high-fat diet [2]": {"tested_on": "mice fed a high-fat diet", "assay": "High-fat diet-induced obesity: body weight, food intake, body composition, adipocyte volume", "format": "in vivo", "conditions": "daily i.p. 5 mg/kg", "procedure": "as §1\n(§2) Animals (n = 90) were randomly assigned to one of the nine groups (Table 1). Animals were fed ad libitum with a high-fat diet (60% of caloric intake from fat (70% saturated fat), 20% from carbohydrates, and 20% from protein) before experiments and for another 12 weeks during the experiments. Food intake was measured manually on a daily basis. Eight groups of animals were treated with indicated peptides with a daily i.p. injection at 5 mg/kg and one group of animals were treated with vehicle.\nBody composition was measured using nuclear magnetic resonance (NMR) technology at Chengdu College core facility. Epididymal fat pads were excised and adipocytes were isolated. Cells were then fixed using 2% OsO4 in PBS overnight at 37°C [2]."}, "mice fed a high-fat diet [3]": {"tested_on": "mice fed a high-fat diet", "assay": "Glucose tolerance test after 12 weeks of treatment on high-fat diet", "format": "in vivo", "conditions": "overnight fasted mice, 2 g/kg glucose i.p., after 12 weeks daily i.p. 5 mg/kg on high-fat diet", "procedure": "as §1, §2\nAfter receiving 12 weeks of treatment as described above, glucose tolerance tests were performed in overnight fasted mice. Each mouse received a 2 g/kg glucose through i.p. Blood samples were obtained from the tail tip at 0, 30, 60, 90, and 120 min. Insulin concentrations were measured using mouse insulin Elisa kits (ChrystalChem) using mouse standards. Glucose levels were measured using a glucometer (Roche)."}, "mice fed a high-fat diet [4]": {"tested_on": "mice fed a high-fat diet", "assay": "Indirect energy expenditure and physical activity measurement", "format": "in vivo", "conditions": "after 12 weeks daily i.p. 5 mg/kg on high-fat diet", "procedure": "as §1, §2\nAfter receiving 12 weeks of treatment as described above, rates of oxygen consumption (VO2) was measured using a four-chamber indirect calorimeter (Langguan, China, air flow of 0.5 l/min). A total of 2-hour measurement for each animal was conducted at 15-minuate intervals under room temperature (22°C). Ambulatory activity was estimated by counting the number of photobeam breaks in a three-sensor chamber instrument (Rui Pharm, China), and the cumulative ambulatory activity counts were recorded every hour. A total of 12 h-day time and 12 h-night activity were recorded for each animal."}}, "note": "Where a SMILES comes first, the peptide text is derived from it. [ ]: non-standard residue; d: D form. Thz = O=C(O)[C@@H]1CSCN1", "data": [{"smiles": "CC(=O)N[C@@H](CCCCN)C(=O)N1CSC[C@H]1C(=O)N[C@@H](C)C(=O)N[C@H](C(=O)N[C@@H](CCCCN)C(N)=O)[C@@H](C)O", "note": "[Peptide 49, Ac-K(r)ATK-NH2] (Ac-K[Thz]ATK-NH2)", "values": [{"measurement": "Ki", "setting": "Cbl (RING) protein", "result": "2900 ± 1200", "unit": "nM"}, {"measurement": "signs of acute toxicity", "setting": "mice; 72 hours", "result": "did not show vital signs of acute toxicity"}, {"measurement": "death of animals", "setting": "mice; another 14 days following the initial examination", "result": "None of the animals died"}, {"measurement": "H&E staining of livers, spleens and kidneys", "setting": "mice; end of experiment", "result": "does not show any sign of injuries"}, {"measurement": "Cmax", "setting": "[1]; male, C57BL/6, mouse, plasma, ip, observed in 60 min, read-out: maximum concentration in plasma", "result": 4680, "unit": "ng/mL"}, {"measurement": "plasma concentrations compared to the parental peptides 1 and 2", "setting": "[1]; at each time point after 1 hour", "result": "greater plasma concentrations"}, {"measurement": "body weight gain vs vehicle, parental and negative control peptide groups", "setting": "mice fed a high-fat diet [2]; 12-week feeding period", "result": "significant differences in body weight gain"}, {"measurement": "percentage of perigonadal fat mass", "setting": "mice fed a high-fat diet [2]; 12 weeks, NMR, vehicle 8 ± 0.8%", "result": "3.9 ± 0.4", "unit": "%"}, {"measurement": "adipocyte volume", "setting": "mice fed a high-fat diet [2]; 12 weeks, adipocytes from epididymal fat pad, vehicle 510 ± 42 pL", "result": "230 ± 38", "unit": "pL"}, {"measurement": "blood insulin levels compared to the vehicle group", "setting": "mice fed a high-fat diet [3]", "result": "significant reduction in blood insulin levels"}, {"measurement": "glucose tolerance compared to the vehicle group", "setting": "mice fed a high-fat diet [3]", "result": "better glucose tolerance"}, {"measurement": "Oxygen consumption VO2", "setting": "mice fed a high-fat diet [4]; vehicle 4.15 ± 0.55", "result": "6.12 ± 0.58", "unit": "mL/g/h"}, {"measurement": "Ambulatory day activity", "setting": "mice fed a high-fat diet [4]; photobeam break counts, vehicle 2,069 ± 705", "result": "4,012 ±1,207 per 12 h"}, {"measurement": "Ambulatory night activity", "setting": "mice fed a high-fat diet [4]; photobeam break counts, vehicle 6,289 ± 1,216", "result": "20,126 ± 2,914 per 12 h"}]}]}
